Consider 17 compounds from US20250289793A1, “MACROCYCLIC INHIBITORS OF ATP CITRATE LYASE” (Esperion Therapeutics, Inc., priority 2022, published 2025).

The target of assay [1] is T1, ACLY (Homo sapiens (Human), UniProt P53396). The assay can be described thus: InCell Pulse assay (permeate HEK293 cells, bind to and stabilize ACLY). Format: cell-based. The conditions noted are these: HEK293 cells transfected with pICP-ACLY(FL)-ePL; 1 hour at 37° C., 55° C. heat pulse 10 minutes; read-out: InCell Pulse IC50 GMean. The method, then: HEK293 cells transfected for 24 hours with pICP-ACLY(FL)-ePL (3 μg DNA per T25 flask) using FuGene HD (Promega Corp.) were harvested and cryopreserved. On the day of the assay, the frozen transfected cells were thawed at 37° C., and the storage medium (DMEM with 2 mM L-Glutamine, 10% FBS and a final concentration of DMSO 10%) was exchanged with assay medium (OptiMEM; Gibco™, ThermoFischer Scientific). Compounds were 3-fold serially diluted in DMSO over 11-point concentration range. 100 nL of the corresponding dilutions were spotted into the assay plate (Greiner AG; 384 Well, PP, Small Volume, Deep Well, Natural, cat. no. 784201) followed by the addition of 20 μL of cell suspension adjusted with assay medium to 7.5E4 cells/mL. Subsequently, the plates were sealed and incubated for 1 hour at 37° C. Afterwards, the plates were fixed upside down in a rack and incubated in a 55° C. water bath for 10 minutes. Following this heat pulse step, plates were allowed to reach room temperature for 10 minutes and centrifuged for a few seconds at 1000 rpm and room temperature. 25 μL EA detection solution (working solution: 0.0167× InCell EA Reagent, 0.15× InCell Dilution Buffer, 0.167× InCell Lysis Buffer; 0.667× InCell Substrate Reagent; InCell Hunter Detection kit; Eurofins DiscoverX; cat. no. 96-0079) were added to each well. Afterwards, 42 μL were transferred from the assay plate to the detection plate (Corning Inc., 384-well Low Flange Black Flat Bottom Polystyrene NBS Microplate, cat. no. 3575), followed by an incubation for 1 hour at room temperature, a centrifugation step for 1 minute at 1000 rpm and the detection of the luminescence signal using an EnVision microplate reader (Perkin Elmer Inc.). Concentration-response curve-fitting and IC50 determination was performed using Evotec's in-house evaluation software APlus with a four-parameter non-linear regression fit model. Data was normalized to 0.5% (final concentration) DMSO as low/negative control and 1 μM (final concentration) NDI-094311 as high/positive control.

The target of assay [2] is T1, ACLY. The assay is described as follows: Human ACLY (hACLY) RF/MS activity assay. It counts as biochemical. The conditions noted are these: 1 nM hACLY; 30 min pre-incubation; 15 μM Coenzyme A, 50 μM ATP, 50 μM citrate; CoA to Acetyl-CoA by RF/MS; read-out: RFMS IC50 GMean. The method, then: Compounds of the disclosure were evaluated for their efficacy in inhibiting hACLY using rapid fire mass spectrometry (RF/MS).
The final reaction volume for each compound was 20 μl and consisted of buffer (50 mM Hepes pH 8.0, 10 mM MgCl2, 0.003% BSA, 0.01% Brij35, 50 mM NaCl, 4 mM DTT) and 1 nM hACLY, EV12992, PP6692) using Greiner, 384 well small volume, deep well plates (Cat #784201). A two-fold dilution series with a top concentration of 10 μM was used to record a concentration response curve. Both the substrate (CoA) and product (Acetyl-CoA) were quantified, and given a ratio. […] The final DMSO-concentration was 1% (v/v). Compounds were pre-incubated for 30 min with the buffered enzyme solution at RT (20° C.), and substrate solution was added (final concentrations: 15 μM Coenzyme A, 50 μM ATP and 50 μM citrate) to initiate the enzyme reaction. The enzyme reaction was incubated for additional 30 min at RT. The reaction was quenched upon addition of 40 μl of 5% Formic acid in H2O and centrifuged (4350 rpm at 20° C. for 10 min).
Product formation was quantified using a RF/MS-based method based on mass change of CoA (substrate) to Acetyl-CoA (product).

T1 sequence (P53396 whole entry): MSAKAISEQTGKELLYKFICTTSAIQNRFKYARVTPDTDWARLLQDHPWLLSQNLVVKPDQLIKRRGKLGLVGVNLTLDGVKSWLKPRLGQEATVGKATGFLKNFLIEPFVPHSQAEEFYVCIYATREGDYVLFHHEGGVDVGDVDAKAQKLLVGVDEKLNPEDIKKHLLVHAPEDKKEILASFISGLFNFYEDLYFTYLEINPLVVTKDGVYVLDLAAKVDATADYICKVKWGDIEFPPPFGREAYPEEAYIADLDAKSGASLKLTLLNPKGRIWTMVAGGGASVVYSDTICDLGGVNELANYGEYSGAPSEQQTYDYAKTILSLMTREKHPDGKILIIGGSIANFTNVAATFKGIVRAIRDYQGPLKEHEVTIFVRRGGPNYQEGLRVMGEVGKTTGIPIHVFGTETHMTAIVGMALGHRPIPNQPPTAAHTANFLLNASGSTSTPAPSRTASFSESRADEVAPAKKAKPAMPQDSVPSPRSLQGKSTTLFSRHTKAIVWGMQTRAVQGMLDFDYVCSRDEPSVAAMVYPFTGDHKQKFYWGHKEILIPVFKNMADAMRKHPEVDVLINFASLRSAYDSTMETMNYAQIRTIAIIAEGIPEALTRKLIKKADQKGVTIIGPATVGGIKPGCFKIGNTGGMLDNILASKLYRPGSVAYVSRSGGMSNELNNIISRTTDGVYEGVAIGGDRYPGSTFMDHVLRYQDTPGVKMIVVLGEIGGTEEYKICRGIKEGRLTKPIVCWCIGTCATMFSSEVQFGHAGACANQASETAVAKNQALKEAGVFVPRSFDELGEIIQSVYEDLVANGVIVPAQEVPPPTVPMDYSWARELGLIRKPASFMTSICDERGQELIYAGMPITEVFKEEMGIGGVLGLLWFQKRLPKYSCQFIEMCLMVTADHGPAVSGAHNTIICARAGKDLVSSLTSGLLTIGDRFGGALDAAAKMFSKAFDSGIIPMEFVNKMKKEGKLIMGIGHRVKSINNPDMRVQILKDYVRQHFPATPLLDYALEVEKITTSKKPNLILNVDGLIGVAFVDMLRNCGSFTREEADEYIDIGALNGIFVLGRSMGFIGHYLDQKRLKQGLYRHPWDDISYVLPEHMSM

Usually IC50 stands for the concentration at which inhibition is half-maximal. As for `O=C1OCCCc2ccccc2-c2ccc(F)c(c2)NS(=O)(=O)c2cc1cc(Cl)c2O` [Compound 42, 15-chloro-21-fluoro-16-hydroxy-18,18-dioxo-11-oxa-18λ6-thia-19-azatetracyclo[18.3.1.113,17.02,7]pentacosa-1(23),2(7),3,5,13,15,17(25),20(24),21-nonaen-12-one], the IC50 in assay [1] was less than 300 nM; in assay [2], 20 to 100 nM.
On to `O=C1OCc2ccc(F)cc2-c2cc(c(F)cc2F)NS(=O)(=O)c2cc1cc(Cl)c2O` [Compound 81, 13-chloro-4,19,21-trifluoro-14-hydroxy-16,16-dioxo-9-oxa-16λ6-thia-17-azatetracyclo[16.3.1.111,15.02,7]tricosa-1(21),2,4,6,11(23),12,14,18(22),19-nonaen-10-one], for which the concentration for half-maximal inhibition (IC50) in assay [1] was less than 300 nM; in assay [2], less than 20 nM.
As for `O=C1OCCOc2ccccc2-c2cc(c(F)cc2F)NS(=O)(=O)c2cc1cc(=O)[nH]2` [Compound 38, 21,23-difluoro-18,18-dioxo-8,11-dioxa-18λ6-thia-16,19-diazatetracyclo[18.3.1.113,17.02,7]pentacosa-1(23),2(7),3,5,13,17(25),20(24),21-octaene-12,15-dione], the IC50 in assay [1] is not below 50000 nM; in assay [2], 20 to 100 nM.
Consider `O=C1c2cc(Cl)c(O)c(c2)S(=O)(=O)Nc2cc(c(F)cc2F)-c2ccccc2OCC2CN1C2` [Compound 33, 16-chloro-22,24-difluoro-17-hydroxy-19,19-dioxo-8-oxa-19λ6-thia-12,20-diazapentacyclo[19.3.1.110,12.114,18.02,7]heptacosa-1(25),2,4,6,14,16,18(26),21,23-nonaen-13-one], for which the IC50 in assay [1] was 300 to 1000 nM; in assay [2] it was 20 to 100 nM.
Take `O=C1OCCOc2ccccc2-c2ccc(C3CC3)c(c2)NS(=O)(=O)c2cc1cc(Cl)c2O` [Compound 57, 15-chloro-21-cyclopropyl-16-hydroxy-18,18-dioxo-8,11-dioxa-18λ6-thia-19-azatetracyclo[18.3.1.113,17.02,7]pentacosa-1(23),2(7),3,5,13(25),14,16,20(24),21-nonaen-12-one]: the values for the 50% inhibitory concentration (IC50) in assay [1] and in assay [2] were 1000 to 50000 nM and 20 to 100 nM, respectively.
Regarding `O=C1OCCOc2cc(F)ccc2-c2ccc(F)c(c2)NS(=O)(=O)c2cc1cc(Cl)c2O` [Compound 48, 15-chloro-5,21-difluoro-16-hydroxy-18,18-dioxo-8,11-dioxa-18λ6-thia-19-azatetracyclo[18.3.1.113,17.02,7]pentacosa-1(23),2(7),3,5,13(25),14,16,20(24),21-nonaen-12-one], the values for the 50% inhibitory concentration (IC50) in assay [1] and in assay [2] were less than 300 nM and less than 20 nM, respectively.
Turning to `O=C1OCCOc2ccccc2-c2cc(c(F)cc2F)NS(=O)(=O)c2cc1cc(Cl)n2` [Compound 61, 15-chloro-21,23-difluoro-18,18-dioxo-8,11-dioxa-18λ6-thia-16,19-diazatetracyclo[18.3.1.113,17.02,7]pentacosa-1(24),2,4,6,13,15,17(25),20,22-nonaen-12-one], the results for the 50% inhibitory concentration (IC50) in assay [1] and in assay [2] were not below 50000 nM and not below 10000 nM, respectively.
The corresponding values for `Cc1cc(F)c2cc1-c1ccccc1OCCOC(=O)c1cc(Cl)c(O)c(c1)S(=O)(=O)N2` [Compound 50, 15-chloro-21-fluoro-16-hydroxy-23-methyl-18,18-dioxo-8,11-dioxa-18λ6-thia-19-azatetracyclo[18.3.1.113,17.02,7]pentacosa-1(23),2(7),3,5,13(25),14,16,20(24),21-nonaen-12-one] are less than 300 nM and less than 20 nM.
With `O=C1OCc2ccccc2-c2cc(c(F)cc2F)NS(=O)(=O)c2cc1cc(Cl)c2O` [Compound 78, 13-Chloro-19,21-difluoro-14-hydroxy-16,16-dioxo-9-oxa-16λ6-thia-17-azatetracyclo[16.3.1.111,15.02,7]tricosa-1(21),2(7),3,5,11(23),12,14,18(22),19-nonaen-10-one], the results for the concentration for half-maximal inhibition (IC50) in assay [1] and in assay [2] were less than 300 nM and less than 20 nM, respectively.
For the compound `O=C1OCCOc2ccccc2-c2cc(c(F)cc2F)NS(=O)(=O)c2cc(O)cc1c2` [Compound 65, 21,23-difluoro-15-hydroxy-18,18-dioxo-8,11-dioxa-18λ6-thia-19-azatetracyclo[18.3.1.113,17.02,7]pentacosa-1(24),2,4,6,13,15,17(25),20,22-nonaen-12-one], the figures for the IC50 in assay [1] and in assay [2] were not below 50000 nM and not below 10000 nM, respectively.
Consider `O=C1NCCOc2ccccc2-c2cc(c(F)cc2F)NC(=O)c2cc1ccc2O` [Compound 12, 21,23-difluoro-16-hydroxy-8-oxa-11,19-diazatetracyclo[18.3.1.1^13,17.0^2,7]pentacosa-1(23),2,4,6,13,15,17(25),20(24),21-nonaene-12,18-dione], for which the IC50 is not below 50000 nM in assay [1] and not below 10000 nM in assay [2].
For `O=C1OCCc2ccccc2-c2ccc(F)c(c2)NS(=O)(=O)c2cc1cc(Cl)c2O` [Compound 72, 14-chloro-20-fluoro-15-hydroxy-17,17-dioxo-10-oxa-17λ6-thia-18-azatetracyclo[17.3.1.112,16.02,7]tetracosa-1(22),2(7),3,5,12,14,16(24),19(23),20-nonaen-11-one], the half-maximal inhibitory concentration (IC50) is less than 300 nM in assay [1] and less than 20 nM in assay [2].
With `O=C1OCCOc2ccccc2-c2cc(F)c(F)c(c2)NS(=O)(=O)c2cc1cc(Cl)c2O` [Compound 54, 15-chloro-21,22-difluoro-16-hydroxy-18,18-dioxo-8,11-dioxa-18λ6-thia-19-azatetracyclo[18.3.1.113,17.02,7]pentacosa-1(23),2(7),3,5,13(25),14,16,20(24),21-nonaen-12-one], the IC50 is less than 300 nM in assay [1] and less than 20 nM in assay [2].
`CC1CCOC(=O)c2cc(Cl)c(O)c(c2)S(=O)(=O)Nc2cc(c(F)cc2F)-c2ccccc21` (stereo not shown) [Compound 43, 15-chloro-21,23-difluoro-16-hydroxy-8-methyl-18,18-dioxo-11-oxa-18λ6-thia-19-azatetracyclo[18.3.1.113,17.02,7]pentacosa-1(23),2(7),3,5,13,15,17(25),20(24),21-nonaen-12-one]: the half-inhibitory concentration (IC50) in assay [1] fell in the range of 300 to 1000 nM; in assay [2] it was 20 to 100 nM.
Regarding `O=C1OCc2cccnc2-c2cc(c(F)cc2F)NS(=O)(=O)c2cc1cc(Cl)c2O` [Compound 87, 13-chloro-19,21-difluoro-14-hydroxy-16,16-dioxo-9-oxa-16λ6-thia-3,17-diazatetracyclo[16.3.1.111,15.02,7]tricosa-1(21),2(7),3,5,11,13,15(23),18(22),19-nonaen-10-one], the IC50 is not below 50000 nM in assay [1] and 20 to 100 nM in assay [2].
The corresponding values for `O=C1OCC2CN(C2)c2ccccc2-c2cc(c(F)cc2F)NS(=O)(=O)c2cc1cc(Cl)c2O` [Compound 76, 16-chloro-22,24-difluoro-17-hydroxy-19,19-dioxo-12-oxa-19λ6-thia-8,20-diazapentacyclo[19.3.1.18,10.114,18.02,7]heptacosa-1(25),2,4,6,14,16,18(26),21,23-nonaen-13-one] are 1000 to 50000 nM and 20 to 100 nM.
The corresponding values for `O=C1OCCOc2ccccc2-c2ccc(C(F)(F)F)c(c2)NS(=O)(=O)c2cc1cc(Cl)c2O` [Compound 58, 15-chloro-16-hydroxy-18,18-dioxo-21-(trifluoromethyl)-8,11-dioxa-18λ6-thia-19-azatetracyclo[18.3.1.113,17.02,7]pentacosa-1(24),2(7),3,5,13(25),14,16,20,22-nonaen-12-one] are less than 300 nM and 20 to 100 nM.
